Holding throughout (experiment): ≥ marks a high value that may be exact or a test limit, other limits are often not marked, values filed in µg/mL are converted to µM
In experiment [1] the test system is Bacillus anthracis Sterne 34F2.
Experiment [2] has as its system Bacillus subtilis var. niger ATCC 9372.
The next experiment has as its system Escherichia coli K91BK.
The subject of experiment [3] is Acinetobacter baumannii NM75.
The test system of experiment [4] is Acinetobacter baumannii NM109.
Experiment [5] concerns Candida albicans ATCC 90028.
In experiment [6] the test system is Staphylococcus aureus ATCC 25923.
Experiment [7] relates to Acinetobacter baumannii NM35.
Experiment [8] deals with Escherichia coli ATCC 25726.
Experiment [9] relates to Acinetobacter baumannii NM124.
The test system of experiment [10] is Acinetobacter baumannii NM8.
The next experiment deals with Acinetobacter baumannii.
Experiment [11] relates to Staphylococcus aureus ATCC 6538P.
Experiment [12] concerns Pseudomonas aeruginosa ATCC 27853.
Experiment [13] deals with Bacillus subtilis ATCC 6633.
Experiment [14] deals with Escherichia coli ATCC 25922.
In experiment [15] the test system is Shigella dysenteriae ATCC 9752.
Experiment [16] deals with Salmonella enterica subsp. enterica serovar Typhimurium ATCC 14028.
The subject of experiment [17] is Klebsiella pneumoniae ATCC 10031.
Experiment [18] relates to Staphylococcus epidermidis ATCC 12228.
Experiment [19] deals with Micrococcus luteus ATCC 10240.
The test system of experiment [20] is Escherichia coli ATCC 8739.
Experiment [21] deals with Pseudomonas aeruginosa ATCC 9027.
Experiment [22] has as its system Staphylococcus aureus ATCC 6538.

In brackets after ≈: the same amount, converted by molar mass. Several values for one entry are separate records, joined by “and”; a condition that tells them apart may be missing. Equal values may be shown once.

What is called MIC is the least concentration at which growth counts as inhibited. With `CC(=O)N[C@@H](Cc1c[nH]c2ccccc12)C(=O)N[C@@H](CCCN=C(N)N)C(=O)N[C@@H](CO)C(=O)N[C@@H](CC(C)C)C(=O)NCC(=O)N[C@@H](CCCN=C(N)N)C(=O)N[C@H](C(=O)N[C@@H](CC(C)C)C(=O)N[C@@H](CC(C)C)C(=O)N[C@@H](CCCN=C(N)N)C(=O)N[C@@H](CC(C)C)C(=O)N[C@@H](CO)C(=O)N[C@@H](Cc1cnc[nH]1)C(=O)N[C@@H](C)C(=O)N[C@@H](CC(C)C)C(=O)N[C@@H](CCCCN)C(=O)N1CCC[C@H]1C(=O)N[C@@H](CC(C)C)C(=O)N[C@@H](C)C(=O)N[C@@H](CCCN=C(N)N)C(=O)N[C@@H](CCCN=C(N)N)C(=O)N[C@@H](CO)C(=O)NCC(=O)N[C@@H](Cc1c[nH]c2ccccc12)C(N)=O)[C@@H](C)O` [WRSLGRTLLRLSHALKPLARRSGW], the MIC was 7.87 µM (≈ 22.6 µg/mL) in experiment [1], 2.1 µM (≈ 6.03 µg/mL) in experiment [2] and at least 100 µM against Escherichia coli K91BK.

Turning to `CC[C@H](C)[C@H](NC(=O)[C@H](C)NC(=O)[C@H](CCCCN)NC(=O)[C@H](CCCN=C(N)N)NC(=O)CNC(=O)[C@H](Cc1ccccc1)NC(=O)[C@H](CCCCN)NC(=O)[C@H](CCCCN)NC(=O)[C@@H](NC(=O)[C@H](CC(C)C)NC(=O)[C@H](CCCCN)NC(=O)CNC(=O)[C@H](Cc1ccccc1)NC(=O)[C@H](CC(C)C)NC(=O)CNC(C)=O)[C@@H](C)CC)C(=O)N[C@@H](CO)C(=O)N[C@@H](Cc1ccc(O)cc1)C(=O)N[C@@H](C)C(=O)N[C@H](C(=O)N[C@@H](CCCCN)C(=O)N[C@@H](CCCCN)C(=O)N[C@@H](C)C(=O)N[C@@H](CCCN=C(N)N)C(=O)NCC(=O)N[C@@H](CCCCN)C(=O)N[C@@H](Cc1cnc[nH]1)C(N)=O)C(C)C` [GLFGKLIKKFGRKAISYAVKKARGKH], the MIC in experiment [1] was 6.25 µM (≈ 18.4 µg/mL); in experiment [2], 2.37 µM (≈ 6.98 µg/mL); against Escherichia coli K91BK it was at least 100 µM.

As to `CC[C@H](C)[C@H](NC(=O)CN)C(=O)N[C@@H](Cc1c[nH]c2ccccc12)C(=O)N[C@@H](CCCCN)C(=O)N[C@H](C(=O)N[C@H](C(=O)N[C@@H](CCCCN)C(=O)N[C@@H](CO)C(=O)N[C@@H](CCSC)C(=O)NCC(=O)N[C@@H](CCCCN)C(=O)N[C@H](C(=O)N[C@@H](Cc1ccccc1)C(=O)N[C@@H](C)C(=O)NCC(=O)N[C@@H](CCCCN)C(=O)N[C@H](C(=O)N[C@@H](CCCCN)C(=O)N[C@@H](CCC(N)=O)C(=O)N[C@@H](CC(N)=O)C(=O)N[C@@H](CC(C)C)C(N)=O)[C@@H](C)CC)C(C)C)[C@@H](C)CC)[C@@H](C)O` [GIWKTIKSMGKVFAGKIKQNL], the MIC amounted to 3 µM (≈ 7.04 µg/mL) in experiment [3]; 6 µM (≈ 14.1 µg/mL) in experiment [4]; 12.5 µM (≈ 29.3 µg/mL) in experiment [5]; 100 µM (≈ 235 µg/mL) in [6]; 6 µM (≈ 14.1 µg/mL) in experiment [7]; 25 µM (≈ 58.7 µg/mL) in experiment [8]. For the same molecule, the values for the MIC (in [9]; in [10]; with Acinetobacter baumannii) were 6 µM (≈ 14.1 µg/mL), 6 µM (≈ 14.1 µg/mL) and 6.25 µM (≈ 14.7 µg/mL), respectively.

For the molecule `CC[C@H](C)[C@H](NC(=O)CN)C(=O)N[C@@H](Cc1c[nH]c2ccccc12)C(=O)N[C@@H](CCCCN)C(=O)N[C@H](C(=O)N[C@H](C(=O)N[C@@H](CCCCN)C(=O)N[C@@H](CO)C(=O)N[C@@H](CCSC)C(=O)NCC(=O)N[C@@H](CCCCN)C(=O)N[C@H](C(=O)N[C@@H](Cc1ccccc1)C(=O)N[C@@H](C)C(=O)NCC(=O)N[C@@H](C)C(=O)N[C@H](C(=O)N[C@@H](CCCCN)C(=O)N[C@@H](CCC(N)=O)C(=O)N[C@@H](CC(N)=O)C(=O)N[C@@H](CC(C)C)C(N)=O)[C@@H](C)CC)C(C)C)[C@@H](C)CC)[C@@H](C)O` [GIWKTIKSMGKVFAGAIKQNL], the MIC in experiment [3] was 3 µM (≈ 6.87 µg/mL); in [4], 3 µM (≈ 6.87 µg/mL); in experiment [5], 12.5 µM (≈ 28.6 µg/mL); in experiment [6], 100 µM (≈ 229 µg/mL); in experiment [7], 3 µM (≈ 6.87 µg/mL); in [8] it was 12.5 µM (≈ 28.6 µg/mL). The MIC in [9] was determined as 3 µM (≈ 6.87 µg/mL); in [10], 3 µM (≈ 6.87 µg/mL); in the experiment with Acinetobacter baumannii, 6.25 µM (≈ 14.3 µg/mL).

As to `CC(C)C[C@H](NC(=O)[C@H](CC(C)C)NC(=O)[C@H](Cc1c[nH]c2ccccc12)NC(=O)[C@H](CCCCN)NC(=O)[C@H](CC(C)C)NC(=O)[C@H](CC(C)C)NC(=O)[C@@H](N)CCCCN)C(=O)N[C@@H](CCCCN)C(N)=O` [KLLKWLLK], the MIC in [11] is 24 µM (≈ 25 µg/mL); in experiment [12], 96 µM (≈ 99.9 µg/mL); in experiment [13] it was at least 48 µM; in experiment [14], 96 µM (≈ 99.9 µg/mL); in experiment [15], at least 192 µM; in [16], above 192 µM. Further, the MIC in experiment [17] was at least 96 µM; in experiment [18], 192 µM (≈ 200 µg/mL); in experiment [19], at least 96 µM.

For `CC[C@H](C)[C@H](NC(=O)[C@H](CCCCN)NC(=O)[C@H](CCCN=C(N)N)NC(=O)[C@H](CC(C)C)NC(=O)[C@@H](NC(=O)[C@H](CCCCN)NC(=O)CNC(=O)[C@H](CC(C)C)NC(=O)[C@@H](NC(=O)[C@H](CCCCN)NC(=O)[C@H](CC(N)=O)NC(=O)[C@H](CCCN=C(N)N)NC(=O)[C@H](C)NC(=O)[C@H](CCSC)NC(=O)[C@@H]1CCCN1)[C@@H](C)CC)[C@@H](C)CC)C(=O)N[C@@H](C)C(=O)N[C@@H](C)C(=O)N[C@@H](Cc1ccccc1)C(=O)N[C@@H](CCCCN)C(=O)O` [PMARNKILGKILRKIAAFK], the MIC is 29.5 µM (≈ 64 µg/mL) in [6] and 3.69 µM (≈ 8 µg/mL) in experiment [20].

`CC(C)C[C@H](NC(=O)[C@H](Cc1c[nH]c2ccccc12)NC(=O)[C@H](CCCCN)NC(=O)[C@H](CC(C)C)NC(=O)[C@@H](N)Cc1ccccc1)C(=O)N[C@@H](Cc1ccccc1)C(=O)N[C@@H](CCCCN)C(=O)N[C@@H](Cc1c[nH]c2ccccc12)C(=O)N[C@@H](C)C(=O)N[C@@H](CCCCN)C(=O)N[C@@H](CCCCN)C(N)=O` [FLKWLFKWAKK]: the MIC in [11] stood at 4.21 µM (≈ 6.3 µg/mL); in [12], 8.36 µM (≈ 12.5 µg/mL); in experiment [13], 2.07 µM (≈ 3.1 µg/mL); in [14] it was 8.36 µM (≈ 12.5 µg/mL); in experiment [15] it was 16.7 µM (≈ 25 µg/mL); in experiment [16], 33.4 µM (≈ 50 µg/mL). The MIC in experiment [17] was 8.36 µM (≈ 12.5 µg/mL); in experiment [18] it was 4.21 µM (≈ 6.3 µg/mL); in experiment [19], 2.07 µM (≈ 3.1 µg/mL).

As for `CC(=O)N[C@@H](CCCCN)C(=O)N[C@@H](Cc1c[nH]c2ccccc12)C(=O)N[C@@H](CCCCN)C(=O)N[C@@H](CCCCN)C(=O)N[C@@H](CC(C)C)C(=O)N[C@@H](CC(C)C)C(=O)N[C@@H](CCCCN)C(=O)N[C@@H](CCCCN)C(=O)N1CCC[C@H]1C(=O)N[C@@H](CC(C)C)C(=O)N[C@@H](CC(C)C)C(=O)N[C@@H](CCCCN)C(=O)N[C@@H](CCCCN)C(=O)N[C@@H](CC(C)C)C(=O)N[C@@H](CC(C)C)C(=O)N[C@@H](CCCCN)C(=O)N[C@@H](CCCCN)C(=O)N[C@@H](CC(C)C)C(N)=O` [KWKKLLKKPLLKKLLKKL], the MIC in experiment [1] is at least 100 µM; in [2], 3.13 µM (≈ 7.16 µg/mL); with Escherichia coli K91BK, at least 100 µM.

With `NCCCC[C@H](NC(=O)[C@H](Cc1c[nH]c2ccccc12)NC(=O)[C@H](Cc1ccccc1)NC(=O)[C@H](Cc1c[nH]c2ccccc12)NC(=O)[C@@H](N)CS)C(=O)N[C@@H](Cc1c[nH]c2ccccc12)C(=O)N[C@@H](Cc1c[nH]c2ccccc12)C(=O)N[C@@H](CCCN=C(N)N)C(=O)N[C@@H](CCCN=C(N)N)C(=O)N[C@@H](CCCN=C(N)N)C(=O)N[C@@H](CCCN=C(N)N)C(=O)N[C@@H](CCCN=C(N)N)C(N)=O` [CWFWKWWRRRRR], the MIC in experiment [20] was 5.2 µM and 7.3 µM; in [21] it was 5.5 µM and 8.7 µM; in experiment [22], 2.5 µM and 4.7 µM.

The record behind these values is DBAASP.
